Results: US6423519B1, “Compositions and methods for inhibiting fungal growth” (GPC Biotech Inc., priority 1998, dated 2002)
In brackets after ≈: the same amount, converted by molar mass. Read-outs that look alike come from different tables or passages of the source.

Legend:
MycCaRHO1 = experiment: Prenylation state / localisation of newly synthesized MycCaRHO1 (fractionation, Western blot); type: cell-based, C. albicans; conditions: 3 μg/ml, strain DIY-BL2-058, versus mock (DMSO) treated cells
Procedure: To look at the effect of GGPTase I inhibitors in vivo a recombinant C. albicans strain engineered to express a Myc tagged CaRHO1 under the control of the C. albicans phosphoenolpyruvate carboxykinase 1 (PCK1) promoter is used. This promoter is repressed by glucose and derepressed by gluconeogenic carbon sources such as succinate. It should also be possible to be look at the endogenous substrates of the GGPTase I. Cells are treated with a sublethal dose of compound for a period of time which has been established from a kill curve analysis in the appropriate media. After the treatment time, cells are harvested and whole cell extracts (WCE) made, these extracts are then resolved by high speed centrifugation into cytosolic and membrane fractions. Visualisation of the localisation of the MycCaRHO1 is achieved by sodium dodecyl sulfate-polyacrylamide gel electrophoresis (SDS-PAGE) and Western blotting. […]
Cells of strain DIY-BL2-058 were grown overnight in YNB supplemented with 1 μg/ml histidine, 2 μg/ml methionine, 2 μg/ml tryptophan, 200 μg/ml glutamine and 2% glucose at 220 rpm at 31° C. The cell number was then determined, cells were pelleted by centrifugation and resuspended in fresh media at a density of 1×10^7 cells/ml and incubated as above. […]
Fractions were thawed on ice. The protein concentration was determined using the standard Bradford method for the WCEs and cytosolic fraction. […]

human GGTase = human GGTase (Homo sapiens, UniProt P53609); experiment: Human GGTase inhibition (Hu GG); type: biochemical
From the text: As described below, a variety of different compounds were synthesized and tested for inhibitory activity against human and Candida GGTase. Exemplary synthesis schemes for generating prenyltransferase inhibitors useful in the methods and compositions of the present invention are shown in FIGS. 1-56. Tables 1-5 provide Structure-Activity relationship (SAR) data for several different classes of prenyltransferase inhibitors.

IMR90 Cell Line = experiment: Cytotoxicity of GGPTase inhibitors in human cells, IMR90 (MTT); type: cell-based; conditions: IMR-90, read-out: Human cell IC50 (nM) IMR90
Procedure: (§1) (A) Plate out cells at predetermined concentration in a volume of 150 μl.
(§2) (B) Allow cells to adhere to plate for twenty four hours
(§3) (C) Add compounds to cells at predetermined concentration (62.5 μg/mL down four-fold, 8 dilutions) n=2
(§4) (D) Cells are exposed to drug for 7 days for the IMR90 Cell Line, and a period of 3 days for the H460 Cell Line.
2. IMR90 Cells have 3-{4,5-Dimethylthiazol-2-yl}-2,5-diphenyltetrazolium bromide (MTT) added to them for three hours prior to final read out. After the three hours, media and MTT are removed and MTT crystals are solubilized in 100% DMSO for final OD read.

C. albicans = experiment: Determination of minimum fungicidal concentration (MFC); type: cell-based; conditions: Candida albicans
Procedure: After the required time course for the MIC determination, the minimum fungicidal concentration can then be determined by plating out the entire contents of the well of the microtitre plates onto YPD or Sabourand plates. These plates are then incubated at 35° C. for 24-48 hrs. The MFC corresponds to the concentration of compound where no cellular growth is observed on the plate. For compound 99a, and MFC was calculated of 2 μg/ml.

C. albicans GGPTase = target: T1, C. albicans GGPTase (Candida albicans, UniProt Q8J224+Q9Y764); experiment: biochemical
T1 sequence (Q9Y764 1-398): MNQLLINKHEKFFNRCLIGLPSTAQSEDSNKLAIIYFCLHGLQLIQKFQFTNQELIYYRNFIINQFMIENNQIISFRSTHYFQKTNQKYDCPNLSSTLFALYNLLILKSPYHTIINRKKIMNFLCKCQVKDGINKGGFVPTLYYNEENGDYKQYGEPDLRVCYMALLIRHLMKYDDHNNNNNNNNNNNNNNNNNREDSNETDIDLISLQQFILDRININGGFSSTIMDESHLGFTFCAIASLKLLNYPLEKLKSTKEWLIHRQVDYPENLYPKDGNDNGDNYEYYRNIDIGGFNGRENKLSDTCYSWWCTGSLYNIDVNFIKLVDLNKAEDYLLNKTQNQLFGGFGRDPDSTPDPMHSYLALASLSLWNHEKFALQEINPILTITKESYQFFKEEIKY
T1 sequence (Q8J224 1-306): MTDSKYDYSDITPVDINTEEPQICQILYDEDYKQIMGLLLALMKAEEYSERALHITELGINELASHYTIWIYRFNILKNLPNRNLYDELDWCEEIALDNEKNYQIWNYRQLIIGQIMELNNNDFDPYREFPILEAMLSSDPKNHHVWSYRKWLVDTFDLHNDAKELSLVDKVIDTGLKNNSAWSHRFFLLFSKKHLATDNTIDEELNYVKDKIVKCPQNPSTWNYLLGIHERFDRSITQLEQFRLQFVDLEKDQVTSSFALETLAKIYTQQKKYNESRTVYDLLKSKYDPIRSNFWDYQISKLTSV
Procedure: Plate test compounds (10 μL per well) at predetermined concentration in 50% DMSO. For background control (blank) and reaction control (negative), add 10 μL of 200 μM GGPP and 10 μL 50% DMSO, respectively. Prepare assay buffer: 50 mM Tris, pH7.5, 20 mM KCL, 5 mM MgCl2, 5 μM ZnCl2, 0.5 mM Zw(3-14), 2 mM DTT and 0.1 mg/mL BSA.
Add 20 μL of C. albicans GGPTase and ^3H-GGPP in assay buffer to test compound. Preincubate enzyme and ^3H-GGPP with test compound for 15 minutes at room temperature. Add 20 μL C. albicans Rho in assay buffer. Incubate for 30 minutes at room temperature. Final assay conditions are 2 nM C. albicans GGPTase, 250 nM ^3H-GGPP and 250 nM C. albicans Rho.
Add 100 μL 15 mM GGPP, 50 mM Tris, pH7.0 and 2% BSA to quench reaction. Transfer reaction to Nickel chelate FlashPlate. Allow his-tagged C. albcians Rho to capture onto plate. Rinse plate 1× with 200 μL 20 mM Tris, pH7.0. Read in TOPCOUNT.

H460 Cell Line = experiment: Cytotoxicity of GGPTase inhibitors in human cells, H460 (Sulforhodamine B); type: cell-based; conditions: NCI-H460, read-out: Human cell IC50 (nM) H460
Procedure: as §1, §2, §3, §4
(E) 1. H460 Cells are fixed in TCA, rinsed, stained with Sulforhodamine B stain, and the stain is solubilized for a final OD read.

CC(C)C[C@H](NC(=O)C1(c2ccccc2)CCN(C(=O)[C@@H](N)CS)CC1)C(=O)N[C@@H](C)C(=O)O [Compound 99a]
abundance of MycCaRHO1 in the cytosolic fraction (FIG. 57) (MycCaRHO1): increases the abundance of MycCaRHO1 in the cytosolic fraction | IC50 (human GGTase; Table 3 Piperidine Analogs, read-out: IC50 (nM) Hu GG): > 500 nM | IC50 (human GGTase; Table 5, read-out: IC50 (nM) Human): > 500 nM | IC50 (IMR90 Cell Line): > 10000 nM | MFC (C. albicans; read-out: Candida MFC (g/mL)): 2 µg/mL (≈ 4.06 µM) | MFC (C. albicans; read-out: MFC): 2 µg/mL (≈ 4.06 µM) | IC50 (C. albicans GGPTase; Table 3 Piperidine Analogs, read-out: IC50 (nM) Ca GG): < 50 nM | IC50 (C. albicans GGPTase; Table 5, read-out: IC50 (nM) Candida): < 50 nM | IC50 (H460 Cell Line): > 10000 nM
